Assay results as given in patent US8158647B2, “Substituted pyrrolopyridines and pyrazolopyridines as kinase modulators” (SGX Pharmaceuticals, Inc., priority 2007, dated 2012).

Key:
[1] = biological target: T1, purified and unphosphorylated T315I Abl kinase domain (ABL_T315I_0P) (Mus musculus, UniProt P00520, T315I); test: c-Abl T315I (unphosphorylated kinase domain) pyruvate kinase/lactate dehydrogenase coupled enzyme assay; type: biochemical; details: 10 μM ATP
T1 construct: The c-Abl T3151 KD (kinase domain) was purified as follows; Met-Ser-Leu (vector-derived residues) (N); made in house; host or cells: E. coli BL21(DE3) strains (Codon+RIL, or pSA0145 for the lambda phosphatase co-expression plasmid)
T1 sequence (P00520 242-493 T315I limits assumed): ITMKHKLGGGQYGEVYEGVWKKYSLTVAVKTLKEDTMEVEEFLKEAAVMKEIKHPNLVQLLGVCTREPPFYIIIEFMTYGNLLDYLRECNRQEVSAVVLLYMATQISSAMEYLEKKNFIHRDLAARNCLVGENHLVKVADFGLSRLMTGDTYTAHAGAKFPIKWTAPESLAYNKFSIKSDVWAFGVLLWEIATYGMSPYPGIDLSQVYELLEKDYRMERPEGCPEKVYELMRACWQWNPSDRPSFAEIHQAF
Source text: Although the first of these examples uses the kinase domain of a mutant form of Abl T315I (“Abl T315I KD”), the kinase assays may use various forms of mutant and wild type enzymes, including, for example, the entire protein, the kinase domain, or a portion thereof (e.g. Abl Y393F). The kinases used in the assays may also be of varying phosphorylation states. In the c-Abl example, a mutant kinase at a zero phosphorylation state was used.
c-Abl Pyruvate Kinase/Lactate Dehydrogenase Coupled Enzyme Assay
In the c-Abl Pyruvate Kinase (PK)/Lactate Dehydrogenase (LDH) Coupled Assay the protein kinase dependant phosphorylation of a substrate peptide was coupled to the oxidation of NADH. The oxidation of NADH to NAD+ was detected by monitoring a decrease in absorbance at 340 nm.
Materials: Abl substrate peptide=EAIYAAPFAKKK-OH (SEQ ID NO: 1) (Biopeptide, San Diego, Calif.); […]NADH (Sigma Cat#N-8129, FW=709.4); 2M MgCl2; 1M HEPES buffer, pH 7.5; Phosphoenolpyruvate (PEP) (Sigma Cat#P-7002, FW=234); Lactate dehydrogenase (LDH) (Worthington Biochemical Cat#2756); Pyruvate Kinase (PK) (Sigma Cat#P-9136); ATP (Sigma Cat#A-3377, FW=551); Greiner 384-well UV star plate; and purified and unphosphorylated T3151 Abl kinase domain.
Stock Solutions: 10 mM NADH (7.09 mg/ml in miliQH2O) made fresh daily; 10 mM Abl substrate peptide (13.4 mg/ml in miliQH2O) stored at −20° C.; 100 mM HEPES buffer, pH 7.5 (5 ml 1M stock+45 ml miliQH2O); 100mM MgCl2 (5 ml 2M MgCl2+95 ml dH2O); 100 mM PEP (23.4 mg/ml in dH2O) stored at −20° C.; 10mM ATP (5.51 mg/ml in dH2O) stored at −20° C. (diluted 50 μl into total of 10 ml miliQH2O daily=50 μM ATP working stock); 1000 U/ml PK (U/mg varies with lot) flash-frozen under liquid N2 and stored at −80° C.; and 1000 U/ml LDH (U/mg varies with lot) flash-frozen under liquid N2 and stored at −80° C.
Standard Assay Setup for 384-well format (50 μl reaction): 300 μM NADH; 10 mM MgCl2; 2 mM PEP; 45 U/ml PK; 60 U/ml LDH; 200 μM Abl substrate peptide; 2.5 μl test compound (in DMSO); 2 μg/ml Abl kinase domain; 10 μM ATP; 100 mM HEPES buffer. Positive controls contained DMSO with no test compound. Negative controls contained 5 μl of 0.5M EDTA (50 mM in the assay). The dephosphorylated form of the c-Abl T315I mutant was used in the biochemical screening assays. The kinase reaction was initiated at time t=0 by the addition of ATP.
Activity was measured by following the time-dependent loss of NADH by absorbance spectroscopy at 340 nm. The linear portion of the resulting progress curve was then analyzed by linear regression to get the activity in absorbance units/time, reported as the slope of that best fit line (moles/unit time can be calculated from using molar extinction coefficient for NADH at 340 nm, 6250M^−1 cm^−1).
Screening data was evaluated using the equation: Z′=1-[3*(σ++σ−)/|μ+−μ−|] (Zhang, et al., 1999 J Biomol Screening 4(2) 67-73), where μ denotes the mean and σ the standard deviation. The subscript designates positive or negative controls. The Z′ score for a robust screening assay should be ≧0.50. The typical threshold=μ+−3*σ+−. Any value that falls below the threshold was designated a “hit”.
Dose response was analyzed using the equation: y=min+{(max−min)/(1+10^[compound]−logIC50)}, where y is the observed initial slope, max=the slope in the absence of inhibitor, min=the slope at infinite inhibitor, and the IC50 is the [compound] that corresponds to ½ the total observed amplitude (Amplitude=max−min).
To measure modulation, activation, or inhibition of Abl KD, a test compound was added to the assay at a range of concentrations. Inhibitors may inhibit Abl KD activity at an IC50 in the micromolar range, the nanomolar range, or, for example, in the subnanomolar range.
An open-reading frame for c-Abl was amplified from a Mus musculus (mouse) cDNA library prepared from freshly harvested mouse liver using a commercially available kit (Invitrogen) by PCR using the following primers: […]
The c-Abl T3151 KD (kinase domain) was purified as follows. […]

[2] = biological target: T2, ABL T315I BAF3 cells (Homo sapiens, UniProt P00519, T315I, cells depend on it); test: 96-well XTT cell survival assay, BaF3 ABL T315I; type: cell-based; details: 72 hours, read-out: CELL BIO ABL T315I BAF3 XTT (IC50)
T2 construct: ABL T315I BAF3; fused on or other part: P11274 (Breakpoint cluster region protein)
Experimental: (§1) MV4-11 and THP cells were maintained in Iscove's Modified Dulbecco's Medium supplemented with 10% fetal bovine serum (FBS) and penicillin/streptomycin, Ba/F3 cells were maintained in RPMI 1640 supplemented with 10% FBS, penicillin/streptomycin and 5 ng/ml recombinant mouse IL-3.
(§2) Compounds were tested in the following assays in duplicate.
(§3) 96-well XTT assay: Cells (e.g. BaF3 315I, M3511, or E255K cells) were grown in growth media containing various concentrations of compounds (duplicates) on a 96-well plate for 72 hours at 37° C. The starting cell number was 5000-8000 cells per well and volume was 120 μl. At the end of the 72-hour incubation, 40 μl of XTT labeling mixture (50:1 solution of sodium 3′-[1-(phenylamino-carbonyl)-3,4-tetrazolium]-bis(4-methoxy-6-nitro) benzene sulfonic acid hydrate and Electron-coupling reagent: PMS (N-methyl dibenzopyrazine methyl sulfate) were added to each well of the plate. After an additional 2-6 hours of incubation at 37° C., the absorbance reading at 405 nm with background correction at 650 nm was measured with a spectrophotometer.

[3] = biological target: T3, ABL P210WT BAF3 cells (Homo sapiens, UniProt P00519); test: 96-well XTT cell survival assay, BaF3 ABL P210WT; type: cell-based; details: ABL P210 WT, 72 hours, read-out: CELL BIO ABL P210WT BAF3 XTT (IC50)
T3 construct: ABL P210WT BAF3; fused on or other part: P11274 (Breakpoint cluster region protein)
Experimental: as §1, §2, §3

ABL_T315I_0P (IC50) [1] | SMILES | GI50 [2] | GI50 [3]
D (<0.01 μM) | COc1cc(F)ccc1-c1c[nH]c2ncc(-c3cnc(N)c(C(=O)N(C)C)c3)c(Cl)c12 [2-Amino-5-[4-chloro-3-(4-fluoro-2-methoxy-phenyl)-1H-pyrrolo[2,3-b]pyridin-5-yl]-N,N-dimethyl-nicotinamide] | 10 to 100 nM | 10 to 100 nM
D (<0.01 μM) | COc1ccc(F)cc1-c1c[nH]c2ncc(-c3cnc(N)c(C(=O)N(C)C)c3)c(Cl)c12 [2-Amino-5-[4-chloro-3-(5-fluoro-2-methoxy-phenyl)-1H-pyrrolo[2,3-b]pyridin-5-yl]-N,N-dimethyl-nicotinamide] | < 10 nM | < 10 nM
D (<0.01 μM) | COc1ccccc1-c1c[nH]c2ncc(-c3cncc(C(O)C(=O)N(C)C)c3)c(C)c12 (stereo not drawn) [2-Hydroxy-2-{5-[3-(2-methoxy-phenyl)-4-methyl-1H-pyrrolo[2,3-b]pyridin-5-yl]-pyridin-3-yl}-N,N-dimethyl-acetamide] | 10 to 100 nM | 10 to 100 nM
D (<0.01 μM) | CNc1c(-c2cncc(C(O)C(=O)N(C)C)c2)cnc2[nH]cc(-c3ccccc3OC)c12 (stereo not drawn) [2-Hydroxy-2-{5-[3-(2-methoxy-phenyl)-4-methylamino-1H-pyrrolo[2,3-b]pyridin-5-yl]-pyridin-3-yl}-N,N-dimethyl-acetamide] | 100 to 1000 nM | 100 to 1000 nM
D (<0.01 μM) | COc1ccccc1-c1c[nH]c2ncc(-c3cncc(C(O)C(=O)N(C)C)c3)c(SC)c12 (stereo not drawn) [2-Hydroxy-2-{5-[3-(2-methoxy-phenyl)-4-methylsulfanyl-1H-pyrrolo[2,3-b]pyridin-5-yl]-pyridin-3-yl}-N,N-dimethyl-acetamide] | 10 to 100 nM | 100 to 1000 nM
D (<0.01 μM) | COc1ccccc1-c1c[nH]c2ncc(-c3cncc(C(O)C(=O)N(C)C)c3)c(C(F)(F)F)c12 (stereo not drawn) [2-Hydroxy-2-{5-[3-(2-methoxy-phenyl)-4-trifluoromethyl-1H-pyrrolo[2,3-b]pyridin-5-yl]-pyridin-3-yl}-N,N-dimethyl-acetamide] | 10 to 100 nM | 10 to 100 nM
C (0.1-0.01 μM) | COc1ccccc1-c1c[nH]c2ncc(-c3cncc(C(O)C(=O)N(C)C)c3)c(O)c12 (stereo not drawn) [2-Hydroxy-2-{5-[4-hydroxy-3-(2-methoxy-phenyl)-1H-pyrrolo[2,3-b]pyridin-5-yl]-pyridin-3-yl}-N,N-dimethyl-acetamide] | > 1000 nM | > 1000 nM
D (<0.01 μM) | COc1ccccc1-c1c[nH]c2ncc(-c3cncc(C(O)C(=O)N(C)C)c3)c(OC)c12 (stereo not drawn) [2-Hydroxy-2-{5-[4-methoxy-3-(2-methoxy-phenyl)-1H-pyrrolo[2,3-b]pyridin-5-yl]-pyridin-3-yl}-N,N-dimethyl-acetamide] | 10 to 100 nM | 10 to 100 nM
D (<0.01 μM) | CN(C)C(=O)C(O)c1cncc(-c2cnc3[nH]cc(-c4ccccc4)c3c2Cl)c1 (stereo not drawn) [2-[5-(4-Chloro-3-phenyl-1H-pyrrolo[2,3-b]pyridin-5-yl)-pyridin-3-yl]-2-hydroxy-N,N-dimethyl-acetamide] | 100 to 1000 nM | 100 to 1000 nM
D (<0.01 μM) | CN(C)C(=O)Cc1cncc(-c2cnc3[nH]cc(-c4ccccc4)c3c2Cl)c1 [2-[5-(4-Chloro-3-phenyl-1H-pyrrolo[2,3-b]pyridin-5-yl)-pyridin-3-yl]-N,N-dimethyl-acetamide] | > 1000 nM | > 1000 nM
D (<0.01 μM) | COc1ccccc1-c1c[nH]c2ncc(-c3cncc(C(O)C(=O)N(C)C)c3)c(N)c12 (stereo not drawn) [2-{5-[4-Amino-3-(2-methoxy-phenyl)-1H-pyrrolo[2,3-b]pyridin-5-yl]-pyridin-3-yl}-2-hydroxy-N,N-dimethyl-acetamide] | 100 to 1000 nM | 100 to 1000 nM
D (<0.01 μM) | CN(C)C(=O)C(O)c1cncc(-c2cnc3[nH]cc(-c4cccc(F)c4F)c3c2Cl)c1 (stereo not drawn) [2-{5-[4-Chloro-3-(2,3-difluoro-phenyl)-1H-pyrrolo[2,3-b]pyridin-5-yl]-pyridin-3-yl}-2-hydroxy-N,N-dimethyl-acetamide] | 100 to 1000 nM | 100 to 1000 nM
C (0.1-0.01 μM) | CN(C)C(=O)C(=O)c1cncc(-c2cnc3[nH]cc(-c4cccc(F)c4F)c3c2Cl)c1 [2-{5-[4-Chloro-3-(2,3-difluoro-phenyl)-1H-pyrrolo[2,3-b]pyridin-5-yl]-pyridin-3-yl}-N,N-dimethyl-2-oxo-acetamide] | > 1000 nM | > 1000 nM
D (<0.01 μM) | CN(C)C(=O)Cc1cncc(-c2cnc3[nH]cc(-c4cccc(F)c4F)c3c2Cl)c1 [2-{5-[4-Chloro-3-(2,3-difluoro-phenyl)-1H-pyrrolo[2,3-b]pyridin-5-yl]-pyridin-3-yl}-N,N-dimethyl-acetamide] | 100 to 1000 nM | 100 to 1000 nM
D (<0.01 μM) | CN(C)C(=O)C(O)c1cncc(-c2cnc3[nH]cc(-c4ccccc4Cl)c3c2Cl)c1 (stereo not drawn) [2-{5-[4-Chloro-3-(2-chloro-phenyl)-1H-pyrrolo[2,3-b]pyridin-5-yl]-pyridin-3-yl}-2-hydroxy-N,N-dimethyl-acetamide] | 100 to 1000 nM | 100 to 1000 nM
